The results in this text go back to US4663435A, “Bridged cyclic hexapeptide somatostatin analogs” (Merck & Co., Inc., priority 1985, dated 1987).

Positions of bridges follow the written chain, without caps; N, C: chain ends. Non-standard residues stand in square brackets, D forms with d. Residues, ends and D or L forms follow the SMILES beside them.

Data set [1] has as its system growth hormone release from rat pituitary cells. Briefly: in vitro test for the inhibition of growth hormone release, cultured rat pituitary cells. Type of data set: cell-based. The note with it: multiple or fraction of the effect of somatostatin (=1), fiducial limits in parentheses, 4 hours incubation. Here is the method: The instant cyclic hexapeptide analogs of somatostatin are tested and compared with the effects of somatostatin in an in vitro test for the inhibition of growth hormone. The test is described as follows:
"Rat pituitaries were isolated according to the procedures of Vale and Grant `In Vitro Pituitary Hormone Secretion Assay for Hypophysiotropic Substances` in Methods in Enzymology. Vol. XXXVII, eds. O'Malley, B. W. and Hardman, J. G. (Academic Press, Inc., New York) pp. 5-93 (1975).
After 4 days in culture, the cells were washed and incubated for 4 hours in Dulbecco-modified Eagle's medium in the presence or absence of graded doses of each analog or somatostatin. The medium was then collected for subsequent growth hormone determination by a double antibody radioimmunoassay for rat growth hormone."

In the next data set the test system is portal vein insulin. Briefly: decrease of portal vein insulin levels in anesthetized rats. It counts as in vivo, rat. To be noted: multiple or fraction of the effect of somatostatin (=1), fiducial limits in parentheses, external jugular vein, portal vein blood after 5 minutes. Here is the method:
(§1) Analogs of somatostatin were compared to somatostatin in their ability to decrease the levels of portal vein glucagon and insulin in anesthetized rats. Male Sprague-Dawley rats (Charles River CD) weighing 160-200 g were anesthetized with urethane (150 mg/100 g of body weight; Aldrich). Saline or peptides were adminstered via the external jugular vein. After 5 minutes, the portal vein was exposed, and blood was collected via syringe containing 3 mg of EDTA and placed in chilled tubes containing 100 μl of Trasylol (FBA Pharmaceuticals) for subsequent hormone analysis. Plasma levels of glucagon were determined by the method of Faloona and Unger, Methods of Hormone Radioimmunoassay, Jaffe and Behrman (Eds), Academic Press, New York, Vol. II, pp. 257-527 (1976), utilizing glucagon antisera 30K obtained from R. Unger (Dallas, TX). Plasma levels of insulin were determined by a modification of the procedure of Herbert et al., J. Clin. Endocrinol. Metab., 25, 1375-1384 (1965).

Data set [2] can be described thus: stability of the isolated peptide with respect to polymerization. It counts as physicochemical. Here is the method: In order to stabilize the compound toward such decomposition it was treated in aqueous solution with 10-40 mole % of N-ethylmaleimide, a reagent which will react with free sulfhydryl groups that could catalyze disulfide interchange. The excess N-ethyl maleimide was separated by passage through a column of Sephadex G-25 gel (superfine) eluted with 50% acetic acid.

The subject of a further data set is portal vein glucagon. Put plainly: decrease of portal vein glucagon levels in anesthetized rats. It counts as in vivo, rat. The note with it: relative to somatostatin (=1), external jugular vein, portal vein blood after 5 minutes. Here is the method:
as §1

On to `C[C@@H](O)[C@@H]1NC(=O)[C@H](CCCCN)NC(=O)[C@@H](Cc2c[nH]c3ccccc23)NC(=O)[C@H](Cc2ccccc2)NC(=O)[C@@H]2CSSC[C@H](NC1=O)C(=O)N2` (cyclo(CCF[dW]KT); disulfide 1-2), for which, in data set [1], the “Growth Hormone Release Inhibition” value is reported as 2.47(1.66-3.81). In addition, the “Insulin Inhibition” value in the data set on portal vein insulin was 10.6(5.5-19.9). Also, the “stability with respect to polymerization” value in data set [2] (after treatment with 10-40 mole % of N-ethylmaleimide and reisolation) was “completely stable”; in data set [2] (sample as isolated, in certain solvents or on extended storage) it was “unstable”. Besides, the “Glucagon Inhibition” value in the data set on portal vein glucagon is recorded as “Active”.

With `C[C@H](N)C(=O)NCC(=O)N[C@H]1CSSC[C@@H](C(=O)O)NC(=O)[C@H](CO)NC(=O)[C@H]([C@@H](C)O)NC(=O)[C@H](Cc2ccccc2)NC(=O)[C@H]([C@@H](C)O)NC(=O)[C@H](CCCCN)NC(=O)[C@H](Cc2c[nH]c3ccccc23)NC(=O)[C@H](Cc2ccccc2)NC(=O)[C@H](Cc2ccccc2)NC(=O)[C@H](CC(N)=O)NC(=O)[C@H](CCCCN)NC1=O` [Somatostatin], the “Glucagon Inhibition” value with portal vein glucagon turned out to be 1.
